Each structure is given as a SMILES string. Where a name gives a salt, the structure may show the parent alone.

Here are results for five compounds from patent publication US20100260674A1, “QUINAZOLINE DERIVATIVES AND METHODS OF TREATMENT” (Concert Pharmaceuticals, Inc., priority 2006, published 2010).

The nature of the first series: Metabolic stability in pooled human liver microsomes. The following applies: 0.5 mg/mL HLM. The method, then:
The metabolic stability of compounds of the invention was tested using pooled liver microsomal incubations. Full scan LC-MS analysis was then performed to detect major metabolites. Samples of the test compounds, exposed to pooled human liver microsomes, were analyzed using HPLC-MS (or MS/MS) detection. For determining metabolic stability, multiple reaction monitoring (MRM) was used to measure the disappearance of the test compounds. Q1 full scans were used to detect the major metabolites.
Experimental Procedures. Human liver microsomes (“HLM”; 20 mg/mL) are obtained from Xenotech, LLC (Lenexa, Kans.). β-nicotinamide adenine dinucleotide phosphate, reduced form (NADPH), magnesium chloride (MgCl2), and dimethyl sulfoxide (DMSO) are purchased from Sigma-Aldrich.
Stock solutions of test compounds (7.5 mM) were prepared in DMSO. […] The 20 mg/mL human liver microsomes were diluted to 0.625 mg/mL in 0.1 M potassium phosphate buffer, pH 7.4, containing 3 mM MgCl2. The diluted microsomes (375 μL) were added to wells of a 96-well deep-well polypropylene plate in triplicate. […] Reactions were initiated by addition of 125 μL of pre-warmed NADPH solution (8 mM NADPH in 0.1M potassium phosphate buffer, pH 7.4, containing 3 mM MgCl2). […] The reaction mixtures were incubated at 37° C., and 50 μL aliquots were removed at 0, 5, 10, 20, and 30 minutes and added to shallow-well 96-well plates which contained 50 μL of ice-cold ACN with internal standard to stop the reactions. The plates were stored at 4° C. for 20 minutes after which 100 μL of water was added to the wells of the plate before centrifugation to pellet precipitated proteins. Supernatants were transferred to another 96-well plate and analyzed for amounts of parent remaining by LC-MS/MS using an Applied Bio-systems API 4000 mass spectrometer.
The in vitro t1/2s for test compounds were calculated from the slopes of the linear regression of % parent remaining (ln) vs incubation time relationship. in vitro t1/2=0.693/k, where k=−[slope of linear regression of % parent remaining(ln) vs incubation time]. Data analysis was performed using Microsoft Excel Software.
A general note: Liver microsomes are vesicles of endoplasmic reticulum, rich in cytochrome P450 enzymes.
Turning to `[2H]C([2H])([2H])OC([2H])([2H])COc1cc2ncnc(Nc3cccc(C#C)c3)c2cc1OCC([2H])([2H])OC([2H])([2H])[2H]` [Compound 109, N-(3-(Ethynyl-d1)phenyl)-6,7-bis(2-(methoxy-d3)-2,2-d2-ethoxy) quinazolin-4-amine], the “longer t1/2 compared to erlotinib” value came to 44%.

The same series, now with this note: human, microsomes, pH 7.4.
A word on the half-life: it is the time needed for the level to fall by half in the phase considered. A lower half-life goes with fast loss. With `[2H]C([2H])([2H])OCCOc1cc2ncnc(Nc3cccc(C#C)c3)c2cc1OCCOC([2H])([2H])[2H]` [Compound 105, N-(3-Ethynylphenyl)-6,7-bis(2-(methoxy-d3)ethoxy)quinazolin-4-amine hydrochloride], the half-life at 1 μM worked out at 62.3 min.

`[2H]C([2H])(COc1cc2ncnc(Nc3cccc(C#C)c3)c2cc1OCC([2H])([2H])OC)OC` [Compound 106, N-(3-ethynylphenyl)-6,7-bis(2-methoxyethoxy)quinazolin-4-amine] yielded a half-life at 1 μM of 43.8 min. For the compound `[2H]C([2H])([2H])OC([2H])([2H])COc1cc2ncnc(Nc3cccc(C#C)c3)c2cc1OCC([2H])([2H])OC([2H])([2H])[2H]` [Compound 109, N-(3-(Ethynyl-d1)phenyl)-6,7-bis(2-(methoxy-d3)-2,2-d2-ethoxy) quinazolin-4-amine], the half-life at 1 μM amounted to 83.5 min. Same read-out and setting: the figure for `[2H]C#Cc1cccc(Nc2ncnc3cc(OCCOC)c(OCCOC)cc23)c1` [Compound 110, N-(3-(Ethynyl-d1)phenyl)-6,7-bis(2-methoxyethoxy) quinazolin-4-amine hydrochloride] is 42.7 min; for `C#Cc1cccc(Nc2ncnc3cc(OCCOC)c(OCCOC)cc23)c1` [erlotinib, N-(3-ethynylphenyl)-6,7-bis(2-methoxyethoxy)quinazolin-4-amine, reference compound] it is 57.8 min.
